# Experimental data taken from the supplement of paper PMC10307832.
# Legend:
# Assay in all cases: relative viability (nuclei count vs DMSO), 5 days (fraction); higher = more cells survive
# Doxorubicin + Dasatinib = compound: COc1cccc2c1C(=O)c1c(O)c3c(c(O)c1C2=O)C[C@@](O)(C(=O)CO)C[C@@H]3O[C@H]1C[C@H](N)[C@H](O)[C@H](C)O1 [Doxorubicin] + Cc1nc(Nc2ncc(C(=O)Nc3c(C)cccc3Cl)s2)cc(N2CCN(CCO)CC2)n1 [Dasatinib] (partner 0.075 µM)
# Procedure, shortened: (§1)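 Lung cancer cell lines in 1536-well plates got either a single drug or a fixed anchor-drug dose together with five library-drug doses (not always all listed) in √10 steps, by pin tool, on the day after seeding. Nuclei were counted after 5 days, and relative viability is the treated-to-vehicle ratio of nuclei counts. Values are medians of duplicate plates.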
# BAY61-3606 + Bortezomib = compound: COC1=C(C=C(C=C1)C2=CC3=NC=CN3C(=N2)NC4=C(C=CC=N4)C(=O)N)OC [BAY61-3606] + CC(C)C[C@H](NC(=O)[C@H](Cc1ccccc1)NC(=O)c1cnccn1)B(O)O [Bortezomib] (partner 0.002 µM)
# Procedure, shortened: as §1
# Doxorubicin + Luminespib = compound: COc1cccc2c1C(=O)c1c(O)c3c(c(O)c1C2=O)C[C@@](O)(C(=O)CO)C[C@@H]3O[C@H]1C[C@H](N)[C@H](O)[C@H](C)O1 [Doxorubicin] + CCNC(=O)c1noc(-c2cc(C(C)C)c(O)cc2O)c1-c1ccc(CN2CCOCC2)cc1 [Luminespib] (partner 0.01 µM)
# Procedure, shortened: as §1
# BAY61-3606 + Decitabine = compound: COC1=C(C=C(C=C1)C2=CC3=NC=CN3C(=N2)NC4=C(C=CC=N4)C(=O)N)OC [BAY61-3606] + Nc1ncn([C@H]2C[C@H](O)[C@@H](CO)O2)c(=O)n1 [Decitabine] (partner 2 µM)
# Procedure, shortened: as §1
Cell Line,relative viability (Doxorubicin + Dasatinib; first compound 0.001 µM),relative viability (Doxorubicin + Dasatinib; first compound 0.003162 µM),relative viability (Doxorubicin + Dasatinib; first compound 0.01 µM),relative viability (Doxorubicin + Dasatinib; first compound 0.03162 µM),relative viability (Doxorubicin + Dasatinib; first compound 0.1 µM),relative viability (BAY61-3606 + Bortezomib; first compound 0.02 µM),relative viability (BAY61-3606 + Bortezomib; first compound 0.06325 µM),relative viability (BAY61-3606 + Bortezomib; first compound 0.2 µM),relative viability (BAY61-3606 + Bortezomib; first compound 0.6325 µM),relative viability (BAY61-3606 + Bortezomib; first compound 2 µM),relative viability (Doxorubicin + Luminespib; first compound 0.001 µM),relative viability (Doxorubicin + Luminespib; first compound 0.003162 µM),relative viability (Doxorubicin + Luminespib; first compound 0.01 µM),relative viability (Doxorubicin + Luminespib; first compound 0.03162 µM),relative viability (Doxorubicin + Luminespib; first compound 0.1 µM),relative viability (BAY61-3606 + Decitabine; first compound 0.02 µM),relative viability (BAY61-3606 + Decitabine; first compound 0.06325 µM),relative viability (BAY61-3606 + Decitabine; first compound 0.2 µM),relative viability (BAY61-3606 + Decitabine; first compound 2 µM),relative viability (BAY61-3606 + Decitabine; first compound 0.6325 µM)
NCI-H1563,0.481,0.505,0.45,0.462,0.483,0.84,0.803,0.948,0.988,0.631,0.486,0.549,0.536,0.528,0.491,,,,,
NCI-H1623,0.502,0.564,0.55,0.548,0.491,,,,,,0.394,0.478,0.508,0.374,0.487,,,,,
NCI-H1648,,,,,,,,,,,,,,,,0.423,0.511,0.504,0.445,
NCI-H1703,,,,,,0.486,0.321,0.291,0.368,0.234,,,,,,,,,,
NCI-H1793,,0.511,0.374,0.33,0.413,,,,,,,0.228,0.289,0.159,0.263,0.504,0.501,0.558,0.651,0.539
NCI-H1944,0.18,0.206,0.216,0.165,0.174,,,,,,0.725,0.733,0.751,0.674,0.651,0.408,0.466,0.424,0.327,0.434
NCI-H2170,0.625,0.687,0.455,0.436,0.553,,,,,,0.484,0.89,0.772,0.5,0.758,0.449,0.529,0.485,0.429,0.462
NCI-H2228,0.45,0.598,0.483,0.229,0.112,1.32,1.17,0.916,1.22,0.567,0.208,0.139,0.2,0.151,0.135,,,,,
NCI-H2342,0.308,0.317,0.323,0.298,0.326,,,,,,0.816,0.739,0.585,0.507,0.787,0.81,0.853,0.78,0.831,0.78
SK-MES-1,0.458,0.396,0.325,0.141,0.128,,,,,,0.771,0.618,0.487,0.199,0.151,0.37,0.342,0.377,0.348,0.382
SW 900,0.544,0.66,0.461,0.36,0.406,,,,,,0.176,0.152,0.162,0.167,0.175,0.452,,,0.442,0.396
